# According to patent publication US8460685B2, “Method of improving the osteoinductivity of calcium phosphate” (Progentix Orthobiology B.V., priority 2005, dated 2013):
# Columns and labels:
# [1] = tested on: dorsal muscles of goats; experiment: Osteoinductive potential of sodium fluoride-loaded TCP ceramic, intramuscular implantation in goats (histology, histomorphometry); type: in vivo; settings: NaF in TCP; improved osteoinductivity
# Protocol: The osteoinductive potential of sodium fluoride-loaded TCP ceramic was tested in a pilot study in muscles of goats. After sterilization (autoclaving at 121° C. for 30 minutes), a volume of 1.0 cc of 1-3 mm ceramic particles (granules) of each TCP-only, TCP with 8 mmol NaF/100 g, TCP with 16 mmol NaF/100 g and TCP with 24 mmol NaF/100 g were implanted in dorsal muscles of 4 goats for 12 weeks (total 4 implants in each of 4 goats).
# Twelve weeks after implantation the animals were sacrificed and the implants were harvested with surrounding tissues and fixed in 1.5% glutaraldehyde in 0.14M cacodylate buffer. The fixed samples were dehydrated in a graded series of aqueous ethanol solutions (70%, 80%, 90%, 96% and 100%×2) and finally embedded in methyl methacrylate (MMA). Using standard procedures non-decalcified sections (10-20 μm) were made and stained with methylene blue and basic fuchsin for histological observation and histomorphometrical analysis regarding bone formation.
# Histomorphometry was performed on the sections across the middle of the implants and to the percentage of the formed bone in the available space was measured using image analysis.
# [2] = tested on: dorsal muscles of goats; experiment: Osteoinductive potential of TCP ceramic loaded with lithium chloride, intramuscular implantation in goats (histology, histomorphometry); type: in vivo; settings: LiCl in TCP; improved osteoinductivity
# Protocol: The osteoinductive potential of TCP ceramic loaded with lithium chloride was tested in a pilot study in muscle of goats. After sterilization (autoclaving at 121° C. for 30 minutes), a volume of 1.0 cc of 1-3 mm ceramic particles (granules) of each TCP-only, TCP with 5 mmol LiCl/100 g, TCP with 15 mmol LiCl/100 g and TCP with 45 mmol LiCl/100 g were implanted in dorsal muscles of 4 goats for 12 weeks (total 4 implants in each of 4 goats).
# Twelve weeks after implantation the animals Were sacrificed and the implants were harvested with surrounding tissues and fixed in 1.5% glutaraldehyde in 0.14M cacodylate buffer. The fixed samples were dehydrated in a graded series of aqueous ethanol solutions (70%, 80%, 90%, 96% and 100%×2) and finally embedded in MMA. Non-decalcified sections (10-20 μm) were prepared and stained with methylene blue and basic fuchsin for histological observation and histomorphometrical analysis regarding bone formation.
# Histomorphometry was performed on the sections across the middle of the implants with regard to the percentage of the formed bone in the available space.
Structure (SMILES),effective amount of trace element in TCP [1],optimum amount of trace element in TCP [1],effective amount of trace element in TCP [2],optimum amount of trace element in TCP [2]
"[F-].[Na+] [NaF, sodium fluoride]",8-24 mmol NaF/100 g,around 16 mmol NaF/100 g TCP,–,–
"[Cl-].[Li+] [LiCl, lithium chloride]",–,–,5-45 mmol LiCl/100 g,around 15 mmol LiCl/100 g TCP
